Assay results taken from US12649755B2, “Plasmin inhibitor, preparation method therefor and application thereof” (SCINNOHUB PHARMACEUTICAL CO., LTD, priority 2020, dated 2026).
Where two headings read alike, the source gives them in different places.

Legend:
[1] = test system: plasma clots (human plasma, tPA-induced lysis); assay: Plasma clot lysis assay; assay type: biochemical
Description: To determine the inhibitory effect of the compounds of the invention on the degradation of plasma clots.
3. […] The time corresponding to the median of the absorption value in the descending section-the time corresponding to the median of the absorption value in the ascending section is the plasma clot degradation time (Clot lysis time).
Taking the log value of the compound concentration as the X-axis, and the percentage inhibition rate as the Y-axis, and dose-response curves were fitted with the software GraphPad Prism 5 by using log (inhibitor) vs. Response-Variable slope to derive IC50 values of compounds inhibiting the degradation of plasma clots. Y=min+(max−min)/(1+10^((LogIC50−X)×Hillslope). Formula: […]

[2] = Rat PK assay, intravenous administration; assay type: in vivo; details: male, Sprague-Dawley, plasma, SD rats, 1 mg/kg single dose
Method: The pharmacokinetic profile of the compounds of the invention in rats was studied by measuring the plasma drug concentration after intravenous administration.
Male Sprague-Dawley rats of SPF grade, 3 rats each group, were obtained from: Shanghai Sippe-Bk Lab Animal Co., Ltd.
The compound was weighed and dissolved in normal saline to prepare a 0.2 mg/mL solution for intravenous administration.
The day before the experiment, the rats were fasted overnight and fed 4 hours after administration.
On the day of the experiment, the rats were administered according to the scheme in the table below. At each time point after administration, approximately 200 μL of blood was collected from the jugular vein and placed in heparin sodium anticoagulation tubes. Blood samples were placed on ice after collection, and the plasma was separated by centrifugation within 1 hour (centrifugation conditions: 6800 g, 6 minutes, 2-8° C.). The separated plasma was stored in a refrigerator at −80° C. for biological sample analysis.
The compound concentration in rat plasma was determined by the following method: • Instruments and equipment: LC-MS/MS-19 (TQ5500, AB SCIEX, USA). • Internal standard: warfarin. • Chromatographic column: ACQUITY UPLC BEH C18, model 1.7 um 2.1*50 mm, purchased from Shenzhen Novah Chemical Technology Co., Ltd.; • Flow rate: 0.60 ml/min. • Column temperature: 40° C. • Mobile phase A: 0.1% formic acid in water. • Mobile phase B: 0.1% formic acid in acetonitrile.
Take 30 μL of the plasma sample prepared from item “3”, add 300 μL MeOH containing 100 ng/ml of internal standard to precipitate protein. The mixture was vortexed for 1 minute and centrifuged at 18000 g for 7 minutes. The supernatant was transferred to a 96-well plate. Inject 4 μL of supernatant into LC-MS/MS for analysis.
The concentration of the compound in rat plasma was determined by the above-mentioned LC-MS/MS analysis method, and pharmacokinetic parameters were calculated by using Phoenix WinNonlin7.0 software according to blood concentration data of different time points.

[3] = relative inhibition of plasma clot lysis vs tranexamic acid in vitro, plasma clot lysis

Row | SMILES | IC50 ratio (IC50 Examples/IC50 Tranexamic acid) [1, 3] | further results
1 | CCOC(=O)OCOP(=O)(O)c1ccc2c(n1)CCNC2 [Example 35] | 0.18 | –
2 | CC(C)C1Cc2nc(P(=O)(O)O)ccc2CN1.Cl (stereo not drawn) [Example 24] | 0.14 | –
3 | Cl.O=P(O)(O)c1ccc2c(n1)C(OCCO)CNC2 (stereo not drawn) [Example 9, (8-(2-hydroxyethoxy)-5,6,7,8-tetrahydro-1,6-naphthyridin-2-yl) Phosphonic Acid Hydrochloride] | 0.25 | –
4 | Cl.O=P(O)(O)c1ccc2c(n1)C(N1CCSCC1)CNC2 (stereo not drawn) [Example 20] | 0.21 | –
5 | Cl.O=P(O)(O)c1ccc2c(n1)CC(Cc1ccccc1)NC2 (stereo not drawn) [Example 30] | 0.75 | –
6 | CCP(=O)(O)c1ccc2c(n1)CCNC2.Cl [Example 3, Ethyl (5,6,7,8-tetrahydro-1,6-naphthyridin-2-yl)-phosphinic Acid Hydrochloride] | – | IC50 ratio (IC50 Examples/IC50 Tranexamic acid) [1]: 0.86
7 | CC(C)C(=O)OCOP(=O)(O)c1ccc2c(n1)CCNC2 [Example 19] | 0.26 | –
8 | Cl.O=P(O)(c1ccccc1)c1ccc2c(n1)CCNC2 [Example 17] | 0.2 | AUC [2]: 2820 ng·h/mL; Cmax [2]: 4090 ng/mL; clearance [2]: 5.83 mL/min/kg; half-life [2]: 1.53 h
9 | Cl.O=P(O)(O)c1ccc2c(n1)C(N1CCOCC1)CNC2 (stereo not drawn) [Example 7, (8-morpholino-5,6,7,8-tetrahydro-1,6-naphthyridin-2-yl) Phosphonic Acid Hydrochloride] | 0.3 | –
10 | Cl.O=P(O)(O)c1ccc2c(n1)C(O)CNC2 (stereo not drawn) [Example 8, (8-hydroxy-5,6,7,8-tetrahydro-1,6-naphthyridin-2-yl) Phosphonic Acid Hydrochloride] | 0.2 | AUC [2]: 6660 ng·h/mL; Cmax [2]: 5990 ng/mL; clearance [2]: 2.44 mL/min/kg; half-life [2]: 1.74 h
11 | Cl.O=P(O)(O)c1ccc2c(n1)CC(COCCCO)NC2 (stereo not drawn) [Example 22] | 0.14 | AUC [2]: 5530 ng·h/mL; Cmax [2]: 6790 ng/mL; clearance [2]: 2.98 mL/min/kg; half-life [2]: 3.58 h
12 | CC(=O)OCOP(=O)(O)c1ccc2c(n1)CCNC2 [Example 18] | 0.23 | –
13 | Cl.O=P(O)(O)c1ccc2c(n1)CC1(CCC1)NC2 [Example 32] | 0.7 | –
14 | CC(C)(C)CCC1Cc2nc(P(=O)(O)O)ccc2CN1.Cl (stereo not drawn) [Example 27] | 0.1 | –
15 | Cl.O=P(O)(O)c1ccc2c(n1)C(N1CCS(=O)(=O)CC1)CNC2 (stereo not drawn) [Example 21] | 0.25 | –
16 | CC(C)(C)CC1Cc2nc(P(=O)(O)O)ccc2CN1.Cl (stereo not drawn) [Example 23] | 0.19 | –

Row | SMILES | IC50 ratio (IC50 Examples/IC50 Tranexamic acid) [1, 3] | further results
17 | Cl.O=P(O)(O)c1ccc2c(n1)CC1(CCCC1)NC2 [Example 33] | 0.22 | –
18 | COc1ccc(CCC2Cc3nc(P(=O)(O)O)ccc3CN2)cc1.Cl (stereo not drawn) [Example 16] | 0.07 | –
19 | CCCC1Cc2nc(P(=O)(O)O)ccc2CN1.Cl (stereo not drawn) [Example 12, (7-propyl-5,6,7,8-tetrahydro-1,6-naphthyridin-2-yl) Phosphonic Acid Hydrochloride] | 0.2 | –
20 | Cl.O=P(O)(O)c1ccc2c(n1)CC(CC1CCCCC1)NC2 (stereo not drawn) [Example 28] | 0.07 | –
21 | Cl.O=P(O)(O)c1ccc2c(n1)C(F)(F)CNC2 [Example 5, (8,8-difluoro-5,6,7,8-tetrahydro-1,6-naphthyridin-2-yl) Phosphonic Acid Hydrochloride] | 1.3 | –
22 | CCOP(=O)(O)c1ccc2c(n1)CCNC2.Cl [Example 15] | 0.29 | AUC [2]: 2830 ng·h/mL; Cmax [2]: 4890 ng/mL; clearance [2]: 5.85 mL/min/kg; half-life [2]: 0.77 h
23 | Cl.O=P(O)(O)c1nc2c(cc1F)CNCC2 [Example 2, (3-fluoro-5,6,7,8-tetrahydro-1,6-naphthyridin-2-yl)phosphonic Acid Hydrochloride] | 0.11 | AUC [2]: 30100 ng·h/mL; Cmax [2]: 10100 ng/mL; clearance [2]: 0.555 mL/min/kg; half-life [2]: 4.15 h
24 | CC(C)CC1(CC(C)C)Cc2nc(P(=O)(O)O)ccc2CN1.Cl [Example 31] | 0.1 | –
25 | Cl.O=P(O)(O)c1ccc2c(n1)CCNC2 [Example 1, (5,6,7,8-tetrahydro-1,6-naphthyridin-2-yl)phosphonic Acid Hydrochloride] | 0.19 | IC50 ([1]; human plasma, tPA, clot lysis time by absorbance at 405 nm, read-out: IC50 value for inhibition of plasma clot lysis): 900 nM; AUC [2]: 14000 ng·h/mL; Cmax [2]: 10200 ng/mL; clearance [2]: 1.14 mL/min/kg; half-life [2]: 1.96 h
26 | Cl.O=P(O)(O)c1ccc2c(n1)CC(CCc1ccccc1)NC2 (stereo not drawn) [Example 13, (7-phenylethyl-5,6,7,8-tetrahydro-1,6-naphthyridin-2-yl) Phosphonic Acid Hydrochloride] | 0.2 | –
27 | CC(C)CC1Cc2nc(P(=O)(O)O)ccc2CN1.Cl (stereo not drawn) [Example 11, (7-isobutyl-5,6,7,8-tetrahydro-1,6-naphthyridin-2-yl) Phosphonic Acid Hydrochloride] | 0.08 | –
28 | CC(C)CCC1Cc2nc(P(=O)(O)O)ccc2CN1.Cl (stereo not drawn) [Example 26] | 0.09 | –
29 | Cl.O=P(O)(O)c1ccc2c(n1)CC(CCCc1ccccc1)NC2 (stereo not drawn) [Example 25] | 0.21 | –
30 | Cl.O=P(O)(CCc1ccccc1)c1ccc2c(n1)CCNC2 [Example 4, Phenylethyl (5,6,7,8-tetrahydro-1,6-naphthyridin-2-yl) Phosphinic Acid Hydrochloride] | 0.36 | –
31 | Cl.O=P(O)(O)c1ccc2c(n1)CC(CCC1CCCCC1)NC2 (stereo not drawn) [Example 29] | 0.09 | –
32 | Cl.O=P(O)(O)c1ccc2c(n1)CC1(CCCCC1)NC2 [Example 34] | 0.29 | –
